Assay [1] deals with T1, Pancreatic lipase-related protein 2 (Cavia porcellus) (UniProt P81139).
T1 sequence (whole entry): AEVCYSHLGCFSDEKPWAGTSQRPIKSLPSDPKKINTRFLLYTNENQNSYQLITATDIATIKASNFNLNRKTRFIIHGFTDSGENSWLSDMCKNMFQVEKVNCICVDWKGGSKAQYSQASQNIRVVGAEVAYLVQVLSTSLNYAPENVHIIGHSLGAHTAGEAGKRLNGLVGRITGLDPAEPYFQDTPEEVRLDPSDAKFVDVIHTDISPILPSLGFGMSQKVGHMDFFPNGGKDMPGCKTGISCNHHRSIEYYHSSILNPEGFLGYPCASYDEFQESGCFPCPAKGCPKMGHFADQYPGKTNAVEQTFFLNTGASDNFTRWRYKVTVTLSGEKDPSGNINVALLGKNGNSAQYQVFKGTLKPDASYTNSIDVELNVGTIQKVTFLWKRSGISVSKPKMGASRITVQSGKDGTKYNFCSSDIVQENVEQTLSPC
The assay can be described thus: Inhibition of recombinant GPLRP2 expressed in Aspergillus oryzae at 2 molar excess after 30 mins in presence of NaTDC.

Assay [2] concerns the target T2, Pancreatic triacylglycerol lipase (Sus scrofa) (UniProt P00591).
T2 sequence (whole entry): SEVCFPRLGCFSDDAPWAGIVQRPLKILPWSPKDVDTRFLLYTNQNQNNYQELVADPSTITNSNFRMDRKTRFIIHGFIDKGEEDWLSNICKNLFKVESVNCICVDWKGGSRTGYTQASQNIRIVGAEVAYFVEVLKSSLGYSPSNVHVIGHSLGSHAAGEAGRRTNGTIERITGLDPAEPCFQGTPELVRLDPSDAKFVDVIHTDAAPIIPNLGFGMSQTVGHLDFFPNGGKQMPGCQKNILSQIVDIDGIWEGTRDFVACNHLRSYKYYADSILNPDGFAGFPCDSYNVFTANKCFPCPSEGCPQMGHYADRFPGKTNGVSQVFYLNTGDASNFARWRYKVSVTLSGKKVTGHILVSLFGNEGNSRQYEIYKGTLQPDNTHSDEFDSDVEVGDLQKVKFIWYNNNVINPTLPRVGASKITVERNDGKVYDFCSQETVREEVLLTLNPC
The assay can be described thus: Inhibition of PPL at 400 molar excess after 30 mins in presence of NaTDC.

In assay [3] the target is T3, Bile salt-activated lipase (Homo sapiens) (UniProt P19835).
T3 sequence (whole entry): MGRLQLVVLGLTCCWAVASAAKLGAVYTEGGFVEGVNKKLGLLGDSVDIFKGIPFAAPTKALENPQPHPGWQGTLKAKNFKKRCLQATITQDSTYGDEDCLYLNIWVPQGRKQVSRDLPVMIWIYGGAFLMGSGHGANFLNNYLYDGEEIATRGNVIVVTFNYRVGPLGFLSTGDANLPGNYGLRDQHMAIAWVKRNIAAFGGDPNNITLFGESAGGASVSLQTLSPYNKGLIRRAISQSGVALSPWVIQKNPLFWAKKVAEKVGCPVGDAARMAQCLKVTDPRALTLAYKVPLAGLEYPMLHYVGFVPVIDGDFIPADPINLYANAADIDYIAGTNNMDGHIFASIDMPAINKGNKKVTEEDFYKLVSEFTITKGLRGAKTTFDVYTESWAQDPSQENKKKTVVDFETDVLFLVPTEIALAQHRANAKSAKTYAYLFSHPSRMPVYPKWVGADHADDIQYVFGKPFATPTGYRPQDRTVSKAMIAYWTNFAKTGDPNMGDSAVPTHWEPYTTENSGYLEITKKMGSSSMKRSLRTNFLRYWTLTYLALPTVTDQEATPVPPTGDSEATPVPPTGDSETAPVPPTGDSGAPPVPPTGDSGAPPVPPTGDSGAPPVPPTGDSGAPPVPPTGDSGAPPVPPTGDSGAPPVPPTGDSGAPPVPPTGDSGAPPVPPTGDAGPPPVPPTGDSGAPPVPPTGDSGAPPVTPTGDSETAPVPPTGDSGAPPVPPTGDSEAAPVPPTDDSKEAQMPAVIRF
The assay can be described thus: Inhibition of human pancreatic CEH assessed as half inactivation time at 4 molar excess.

Assay [4] concerns the target T1, Pancreatic lipase-related protein 2 (Cavia porcellus). The assay can be described thus: Inhibition of recombinant GPLRP2 expressed in Aspergillus oryzae assessed as half inactivation time at 2 molar excess in presence of NaTDC.
Assay [5] has as its target T4, Gastric triacylglycerol lipase (Canis lupus familiaris) (UniProt P80035).
T4 sequence (whole entry): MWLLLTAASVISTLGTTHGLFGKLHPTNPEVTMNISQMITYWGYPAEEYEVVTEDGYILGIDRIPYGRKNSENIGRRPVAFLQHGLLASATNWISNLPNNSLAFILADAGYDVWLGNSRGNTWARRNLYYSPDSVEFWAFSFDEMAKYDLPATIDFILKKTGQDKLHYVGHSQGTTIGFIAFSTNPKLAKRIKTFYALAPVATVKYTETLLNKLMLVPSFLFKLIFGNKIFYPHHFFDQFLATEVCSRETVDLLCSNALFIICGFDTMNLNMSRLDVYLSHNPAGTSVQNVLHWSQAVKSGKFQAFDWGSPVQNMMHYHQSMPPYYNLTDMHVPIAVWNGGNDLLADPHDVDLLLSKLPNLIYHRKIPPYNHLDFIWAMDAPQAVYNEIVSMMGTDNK
The assay can be described thus: Inhibition of recombinant DGL expressed in transgenic maize after 30 mins in presence of NaTDC.

Assay [6] addresses T1, Pancreatic lipase-related protein 2 (Cavia porcellus). The assay can be described thus: Inhibition of recombinant GPLRP2 expressed in Aspergillus oryzae after 30 mins in presence of NaTDC.
Assay [7] has as its target T5, Pancreatic triacylglycerol lipase (Homo sapiens) (UniProt P16233).
T5 sequence (whole entry): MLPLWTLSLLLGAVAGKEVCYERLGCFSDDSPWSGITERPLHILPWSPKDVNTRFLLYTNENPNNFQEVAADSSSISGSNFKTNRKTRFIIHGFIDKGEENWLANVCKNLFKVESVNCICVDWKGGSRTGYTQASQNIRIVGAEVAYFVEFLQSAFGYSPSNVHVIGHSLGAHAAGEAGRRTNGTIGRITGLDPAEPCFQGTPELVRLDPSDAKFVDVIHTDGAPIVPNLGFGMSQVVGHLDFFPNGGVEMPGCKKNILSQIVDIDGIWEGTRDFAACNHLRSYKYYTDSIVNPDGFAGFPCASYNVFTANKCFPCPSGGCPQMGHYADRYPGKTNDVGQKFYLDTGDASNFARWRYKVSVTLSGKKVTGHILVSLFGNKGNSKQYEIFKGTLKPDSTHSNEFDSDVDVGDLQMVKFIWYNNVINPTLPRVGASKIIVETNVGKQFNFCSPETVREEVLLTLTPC
Description: Inhibition of recombinant HPL expressed in Pichia pastoris after 30 mins in presence of NaTDC.

Among the data in ChEMBL document CHEMBL2169741, “Analysis of the discriminative inhibition of mammalian digestive lipases by 3-phenyl substituted 1,3,4-oxadiazol-2(3H)-ones” (Eur J Med Chem, 2012) are inhibition, T1/2 and XI50 values, retold here.

As usually defined, the inhibition is the change of the read-out against control, counted positive when it falls.

Activity calls are given as the source filed them. The rule behind the calls is not given here.

`COc1nn(-c2cccc(Oc3ccccc3)c2)c(=O)o1`: the inhibition was determined as 80.1% in assay [1] and 87.7% in assay [2]. In addition, the T1/2 is 54 s in assay [3] and 27.6 s in assay [4]. The XI50 was 8.33 molar excess in assay [5], 0.77 molar excess in assay [6] and over 400 molar excess in assay [7].
`CCCCCCCCCCC[C@@H](C[C@@H]1OC(=O)[C@H]1CCCCCC)OC(=O)[C@H](CC(C)C)NC=O`: the inhibition is 82.7% in assay [1] and 90.9% in assay [2]. The T1/2 in assay [3] is 31.2 s; in assay [4], 24 s.
For `COc1nn(-c2ccccc2)c(=O)o1`, the inhibition in assay [1] was 77.6%; in assay [2] it was 35.8%. Besides, the T1/2 was found to be 60 s in assay [3] and 598 s in assay [4]. In addition, the XI50 is over 40 molar excess in assay [5] and 0.74 molar excess in assay [6]. The XI50 result in assay [7] is “inactive”.
In the case of `COc1nn(-c2ccc(Oc3ccccc3)cc2)c(=O)o1`, the inhibition in assay [1] was found to be 13.3%; in assay [2], 87.1%. In addition, the figures for the T1/2 in assay [3] and in assay [4] were 85.8 s and over 3600 s, respectively. Besides, the XI50 is 7.12 molar excess in assay [5], over 40 molar excess in assay [6] and over 400 molar excess in assay [7].
